Laboratory results reported in US9125913B2, “Bcl-2-selective apoptosis-inducing agents for the treatment of cancer and immune diseases” (AbbVie Inc., priority 2008, dated 2015).

These compounds were tested on GST-Bcl-2 (assay: TR-FRET binding assay, Bcl-2). Details: TR-FRET Ki values.
Procedure, shortened: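 Compounds serially diluted in DMSO from 50 μM (2× starting concentration, 10% DMSO), mixed with GST-tagged protein, F-Bak peptide probe and Tb-labeled antibody, incubated 3 h at room temperature.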

SMILES | Binding selectivity ratio (Bcl-XL Ki/Bcl-2 Ki)
CN(C)CCCNc1ccc(S(=O)(=O)NC(=O)c2ccc(N3CCN(Cc4ccccc4-c4ccc(Cl)cc4)CC3)cc2Oc2ccccc2)cc1C#N [Example 90, 4-{4-[(4′-chloro-1,1′-biphenyl-2-yl)methyl]piperazin-1-yl}-N-[(3-cyano-4-{[3-(dimethylamino)propyl]amino}phenyl)sulfonyl]-2-phenoxybenzamide] | 133
CC1(C)CCC(CN2CCN(c3ccc(C(=O)NS(=O)(=O)c4ccc(NCC5COCCO5)c([N+](=O)[O-])c4)c(Oc4ccc5[nH]ccc5c4)c3)CC2)=C(c2ccc(Cl)cc2)C1 (stereo not shown) [EXAMPLE 336, 4-(4-{[2-(4-chlorophenyl)-4,4-dimethylcyclohex-1-en-1-yl]methyl}piperazin-1-yl)-N-({4-[(1,4-dioxan-2-ylmethyl)amino]-3-nitrophenyl}sulfonyl)-2-(1H-indol-5-yloxy)benzamide] | 2301.3
CC(C1=C(c2ccc(Cl)cc2)CC(C)(C)CC1)N1CCN(c2ccc(C(=O)NS(=O)(=O)c3ccc(NC4CCN(C5CCOCC5)CC4)c([N+](=O)[O-])c3)c(Oc3ccc4[nH]ccc4c3)c2)CC1 (stereo not shown) [EXAMPLE 258, 4-(4-{1-[2-(4-chlorophenyl)-4,4-dimethylcyclohex-1-en-1-yl]ethyl}piperazin-1-yl)-2-(1H-indol-5-yloxy)-N-({3-nitro-4-[(1-tetrahydro-2H-pyran-4-ylpiperidin-4-yl)amino]phenyl}sulfonyl)benzamide] | 86
CC1(C)CCC(CN2CCN(c3ccc(C(=O)NS(=O)(=O)c4ccc(NN5CCS(=O)(=O)CC5)c([N+](=O)[O-])c4)c(Oc4ccc5[nH]ccc5c4)c3)CC2)=C(c2ccc(Cl)cc2)C1 [EXAMPLE 362, 4-(4-{[2-(4-chlorophenyl)-4,4-dimethylcyclohex-1-en-1-yl]methyl}piperazin-1-yl)-N-({4-[(1,1-dioxidothiomorpholin-4-yl)amino]-3-nitrophenyl}sulfonyl)-2-(1H-indol-5-yloxy)benzamide] | 3548.2
CC1(C)CCC(CN2CCN(c3ccc(C(=O)NS(=O)(=O)c4ccc(NCc5cncs5)c([N+](=O)[O-])c4)c(Oc4ccc5[nH]ccc5c4)c3)CC2)=C(c2ccc(Cl)cc2)C1 [EXAMPLE 288, 4-(4-{[2-(4-chlorophenyl)-4,4-dimethylcyclohex-1-en-1-yl]methyl}piperazin-1-yl)-2-(1H-indol-5-yloxy)-N-({3-nitro-4-[(1,3-thiazol-5-ylmethyl)amino]phenyl}sulfonyl)benzamide] | >3730.9
CC1(C)CCC(CN2CCN(c3ccc(C(=O)NS(=O)(=O)c4cnc(OCC5CCOC5)c(Cl)c4)c(Oc4cccc5[nH]ncc45)c3)CC2)=C(c2ccc(Cl)cc2)C1 (stereo not shown) [EXAMPLE 420, 4-(4-{[2-(4-chlorophenyl)-4,4-dimethylcyclohex-1-en-1-yl]methyl}piperazin-1-yl)-N-{[5-chloro-6-(tetrahydrofuran-3-ylmethoxy)pyridin-3-yl]sulfonyl}-2-(1H-indazol-4-yloxy)benzamide] | 1153
CC1(C)CCC(CN2CCN(c3ccc(C(=O)NS(=O)(=O)c4ccc(NN5CCN(CCO)CC5)c([N+](=O)[O-])c4)c(Oc4ccc5[nH]ccc5c4)c3)CC2)=C(c2ccc(Cl)cc2)C1 [EXAMPLE 233, 4-(4-{[2-(4-chlorophenyl)-4,4-dimethylcyclohex-1-en-1-yl]methyl}piperazin-1-yl)-N-[(4-{[4-(2-hydroxyethyl)piperazin-1-yl]amino}-3-nitrophenyl)sulfonyl]-2-(1H-indol-5-yloxy)benzamide] | >2714.3
CC1(C)CCC(CN2CCN(c3ccc(C(=O)NS(=O)(=O)c4ccc(CCC5OCCO5)c([N+](=O)[O-])c4)c(Oc4ccc5[nH]ccc5c4)c3)CC2)=C(c2ccc(Cl)cc2)C1 [EXAMPLE 278, 4-(4-{[2-(4-chlorophenyl)-4,4-dimethylcyclohex-1-en-1-yl]methyl}piperazin-1-yl)-N-({4-[2-(1,3-dioxolan-2-yl)ethyl]-3-nitrophenyl}sulfonyl)-2-(1H-indol-5-yloxy)benzamide] | >929.4
CC1(C)CCC(CN2CCN(c3ccc(C(=O)NS(=O)(=O)c4ccc(N[C@H]5CC[C@H](N6CCOCC6)CC5)c([N+](=O)[O-])c4)c(Oc4cccc5[nH]ccc45)c3)CC2)=C(c2ccc(Cl)cc2)C1 [EXAMPLE 204, Trans-4-(4-{[2-(4-chlorophenyl)-4,4-dimethylcyclohex-1-en-1-yl]methyl}piperazin-1-yl)-2-(1H-indol-4-yloxy)-N-({4-[(4-morpholin-4-ylcyclohexyl)amino]-3-nitrophenyl}sulfonyl)benzamide] | 291.3
CC1(C)CCC(CN2CCN(c3ccc(C(=O)NS(=O)(=O)c4ccc(NC5CCN(C6CCOCC6)CC5)c([N+](=O)[O-])c4)c(Oc4cccc5[nH]cnc45)c3)CC2)=C(c2ccc(Cl)cc2)C1 [EXAMPLE 417, 2-(1H-benzimidazol-4-yloxy)-4-(4-{[2-(4-chlorophenyl)-4,4-dimethylcyclohex-1-en-1-yl]methyl}piperazin-1-yl)-N-({3-nitro-4-[(1-tetrahydro-2H-pyran-4-ylpiperidin-4-yl)amino]phenyl}sulfonyl)benzamide] | 87.06
O=C(NS(=O)(=O)c1ccc(NCC2CCOCC2)c([N+](=O)[O-])c1)c1ccc(N2CCN(Cc3cc(OCCO)ccc3-c3ccc(Cl)cc3)CC2)cc1Oc1cccc2[nH]ccc12 [EXAMPLE 213, 4-(4-{[4′-chloro-4-(2-hydroxyethoxy)-1,1′-biphenyl-2-yl]methyl}piperazin-1-yl)-2-(1H-indol-4-yloxy)-N-({3-nitro-4-[(tetrahydro-2H-pyran-4-ylmethyl)amino]phenyl}sulfonyl)benzamide] | >66000
CC1(C)CCC(CN2CCN(c3ccc(C(=O)NS(=O)(=O)c4ccc(NCC5(C)COC5)c([N+](=O)[O-])c4)c(Oc4ccc5[nH]ccc5c4)c3)CC2)=C(c2ccc(Cl)cc2)C1 [EXAMPLE 264, 4-(4-{[2-(4-chlorophenyl)-4,4-dimethylcyclohex-1-en-1-yl]methyl}piperazin-1-yl)-2-(1H-indol-5-yloxy)-N-[(4-{[(3-methyloxetan-3-yl)methyl]amino}-3-nitrophenyl)sulfonyl]benzamide] | >2808.4
CC1(C)CCC(CN2CCN(c3ccc(C(=O)NS(=O)(=O)c4ccc(NCC5CCS(=O)(=O)CC5)c([N+](=O)[O-])c4)c(Oc4cccc5[nH]ccc45)c3)CC2)=C(c2ccc(Cl)cc2)C1 [EXAMPLE 301, 4-(4-{[2-(4-chlorophenyl)-4,4-dimethylcyclohex-1-en-1-yl]methyl}piperazin-1-yl)-N-[(4-{[(1,1-dioxidotetrahydro-2H-thiopyran-4-yl)methyl]amino}-3-nitrophenyl)sulfonyl]-2-(1H-indol-4-yloxy)benzamide] | >2268.0
O=C(NS(=O)(=O)c1ccc(NCC2CCOCC2)c(S(=O)(=O)C(F)(F)F)c1)c1ccc(N2CCN(Cc3ccccc3-c3ccc(Cl)cc3)CC2)cc1Oc1ccc2ccccc2c1 [Example 37, 4-{4-[(4′-chloro-1,1′-biphenyl-2-yl)methyl]piperazin-1-yl}-2-(2-naphthyloxy)-N-({4-[(tetrahydro-2H-pyran-4-ylmethyl)amino]-3-[(trifluoromethyl)sulfonyl]phenyl}sulfonyl)benzamide] | 95.7
CC1(C)CCC(CN2CCN(c3ccc(C(=O)NS(=O)(=O)c4ccc(NC5CCN(S(C)(=O)=O)CC5)c([N+](=O)[O-])c4)c(Oc4cccc5[nH]ccc45)c3)CC2)=C(c2ccc(Cl)cc2)C1 [EXAMPLE 338, 4-(4-{[2-(4-chlorophenyl)-4,4-dimethylcyclohex-1-en-1-yl]methyl}piperazin-1-yl)-2-(1H-indol-4-yloxy)-N-[(4-{[1-(methylsulfonyl)piperidin-4-yl]amino}-3-nitrophenyl)sulfonyl]benzamide] | >1637.7
CC1(C)CCC(CN2CCN(c3ccc(C(=O)NS(=O)(=O)c4ccc(NC5CCOCC5)c([N+](=O)[O-])c4)c(Oc4ccc5[nH]ccc5c4)c3)CC2)=C(c2ccc(Cl)cc2)C1 [EXAMPLE 263, 4-(4-{[2-(4-chlorophenyl)-4,4-dimethylcyclohex-1-en-1-yl]methyl}piperazin-1-yl)-2-(1H-indol-5-yloxy)-N-{[3-nitro-4-(tetrahydro-2H-pyran-4-ylamino)phenyl]sulfonyl}benzamide] | >2090.0
CN1CCN(CCNc2ccc(S(=O)(=O)NC(=O)c3ccc(N4CCN(CC5=C(c6ccc(Cl)cc6)CC(C)(C)CC5)CC4)cc3Oc3cccc4[nH]ccc34)cc2[N+](=O)[O-])CC1 [Example 101, 4-(4-{[2-(4-chlorophenyl)-4,4-dimethylcyclohex-1-en-1-yl]methyl}piperazin-1-yl)-2-(1H-indol-4-yloxy)-N-[(4-{[2-(4-methylpiperazin-1-yl)ethyl]amino}-3-nitrophenyl)sulfonyl]benzamide] | 121.2
CN1CCC(O)(CNc2ccc(S(=O)(=O)NC(=O)c3ccc(N4CCN(CC5=C(c6ccc(Cl)cc6)CC(C)(C)CC5)CC4)cc3Oc3cccc4[nH]ccc34)cc2[N+](=O)[O-])CC1 [EXAMPLE 186, 4-(4-{[2-(4-chlorophenyl)-4,4-dimethylcyclohex-1-en-1-yl]methyl}piperazin-1-yl)-N-[(4-{[(4-hydroxy-1-methylpiperidin-4-yl)methyl]amino}-3-nitrophenyl)sulfonyl]-2-(1H-indol-4-yloxy)benzamide] | 1069.2
CN1CCC(Nc2ccc(S(=O)(=O)NC(=O)c3ccc(N4CCN(Cc5cc(OCCO)ccc5-c5ccc(Cl)cc5)CC4)cc3Oc3cccc4[nH]ccc34)cc2[N+](=O)[O-])CC1 [EXAMPLE 221, 4-(4-{[4′-chloro-4-(2-hydroxyethoxy)-1,1′-biphenyl-2-yl]methyl}piperazin-1-yl)-2-(1H-indol-4-yloxy)-N-({4-[(1-methylpiperidin-4-yl)amino]-3-nitrophenyl}sulfonyl)benzamide] | 3005.2
